The target of data set [1] is T1, MT2 (Homo sapiens, UniProt P49286).
T1 sequence (P49286 1-362): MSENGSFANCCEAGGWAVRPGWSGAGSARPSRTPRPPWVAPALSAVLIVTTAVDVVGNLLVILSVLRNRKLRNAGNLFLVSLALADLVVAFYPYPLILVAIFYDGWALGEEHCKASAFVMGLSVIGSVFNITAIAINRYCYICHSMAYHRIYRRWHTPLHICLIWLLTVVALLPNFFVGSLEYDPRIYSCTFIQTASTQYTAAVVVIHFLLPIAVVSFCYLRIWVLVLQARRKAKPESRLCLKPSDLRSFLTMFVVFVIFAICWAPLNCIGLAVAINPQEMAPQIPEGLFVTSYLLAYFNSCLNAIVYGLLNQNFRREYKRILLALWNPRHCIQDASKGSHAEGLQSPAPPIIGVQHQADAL
Description: (§8) Competitive receptor binding characteristics of melatonin and the 15 tested compounds towards human MT1 and MT2 stably expressed in Chinese hamster ovary (CHO) cells were determined using intact cell preparation pre-incubated with 1 nM [^3H]melatonin.
(§9) Individual melatonin receptor subtype (either MT1 or MT2) was stably co-expressed with a G protein chimera 16z25 in Chinese hamster ovary (CHO) cells, hereafter denoted as CHO-hMT1 and CHO-hMT2, respectively. […] Single cell-derived colonies of the stable lines with sufficiently high receptor density and robust responses in the fluorometric assay (as described below) were isolated from the pool of transfected cell. Usage of these clonal lines was limited to 15 passages to prevent degradation of signal detection.
(§10) Competitive binding assays were performed as described [26]. Cells were suspended in binding buffer (50 mM Tris, 2 mM MgCl2, 1 mM EGTA, pH 7.4) in the density of 1.5×10^5 cell/ml. 1 nM [^3H]melatonin and increasing concentrations of a tested compound was included. Cells were incubated at 4°C for 60 min with intermittent agitation and the reaction was stopped by rapid filtration through GF/C filters pre-soaked in 10 mM Tris, pH 7.4 and washed with 1 ml of prechilled binding buffer. Retained radioactivity was measured with Wallac 1450 Microbeta Jet scintillation counter. Competition curves were drawn as one-site competition nonlinear regression model using GraphPad Prism 3.03 to the data which were means ± SEM of 3–4 independent experiments performed in duplicates. In every assay, melatonin was included as standard reference with highly reproducible Ki values, which were calculated using the Cheng-Prusoff equation.

Data set [2] addresses T2, MT1 (Homo sapiens, UniProt P48039). The data set is described as follows: biochemical.
Description: as §8, §9, §10
The target of data set [3] is T1, MT2. Put plainly: biochemical. To be noted: for Ki: MT2 Ki, calculated from mean pIC50 (Cheng-Prusoff), 1 nM [3H]melatonin, intact CHO cells.
Description: as §8, §9, §10
For data set [4], the target named is T2, MT1. Put plainly: Intracellular Ca2+ mobilization (FLIPR) in MT1-CHO cells co-expressing 16z25. On the set-up: expressed in transfected cells. It is filed as cell-based. On the procedure: (§1) Tested compounds in different concentrations were diluted in assay buffer in 5× of the final desired concentrations in a V-bottomed microplate, and both the cell and compound plates were put into the fluorometric imaging plate reader FLIPR^TETRA (Molecular Devices, Sunnyvale, CA). […] The peak of the time course of fluorescence changes was expressed in relative fluorescence units (RFU). Dose response curves were constructed by non-linear regression using GraphPad Prism 3.
On the technique in general: Calcium flux is commonly read through the fluorescence of an indicator in the cells.

Data set [5] has as its target T1, MT2. Put plainly: Intracellular Ca2+ mobilization (FLIPR) in MT2-CHO cells co-expressing 16z25. It is filed as cell-based. More on the design: expressed in transfected cells. How it is done:
as §1

In data set [6] the target is T2, MT1. Put plainly: Inhibition of forskolin-stimulated cAMP accumulation in MT1-CHO cells. More on the design: expressed in transfected cells. It is filed as cell-based. How it is done: (§2) Both MT1 and MT2 are classified as Gi-coupled receptors with their activation leading to inhibition of intracellular cAMP production. The ability of the tested compounds to activate the endogenously expressed Gi-mediated inhibition of cAMP production was therefore examined.
(§3) All the responses were expressed as the percentage of that induced by forskolin alone (as 100%).
(§4) 2×10^5 cells were seeded in each well of 12-well plates and grown for overnight. Each well was labeled with 1 ml of [^3H]adenine (1 µCi/ml) in F-12K medium containing 1% FBS (vol/vol) for overnight. The labeling media were then replaced by 1 ml of 20 mM HEPES-buffered F-12K containing 1 mM isobutylmethylxanthine (IBMX) and the tested compounds at desired concentrations, and incubated at 37°C for 30 min. The reaction was stopped by aspiration and adding 1 ml prechilled 5% trichloroacetic acid (w/v) with 1 mM ATP, and stored at 4°C for 30 min. [^3H]cAMP was extracted from the pool of labeled adenosine nucleotides by sequential ion-exchange chromatography as previously described. The radioactivity of labeled cAMP and total labeled nucleotide fractions separated by chromatography were estimated by scintillation counting. Inhibition curves were constructed by non-linear regression using GraphPad Prism 3.

Data set [7] has as its target T1, MT2. The data set is described as follows: Inhibition of forskolin-stimulated cAMP accumulation in MT2-CHO cells. It is filed as cell-based. On the set-up: expressed in transfected cells. On the procedure:
as §2, §3, §4
A general note: cAMP levels reflect the balance of adenylyl cyclase and phosphodiesterase activity.

Data set [8] concerns the target T2, MT1. Put plainly: Immunodetection of ERK phosphorylation in MT1-CHO cells. It is filed as cell-based. More on the design: expressed in transfected cells. How it is done: (§5) CHO cells expressing MT1 or MT2 were serum-starved before treating with the indicated concentrations of melatonin or individual tested compounds. Resolved proteins were electrotransferred for immunodetection using phosphorylated ERK-specific antibody.
(§6) (A) CHO cells expressing MT1 or MT2 were treated with the indicated concentrations of 7e or luzindole in the absence or presence of a fixed concentration of melatonin (MLT) (for both MT1 or MT2) or 7b (for MT2 only). Other experimental details were as to the legend of Figure 5. Data shown were representative blots of three separate trials. (B) CHO cells expressing MT2 were treated with increasing concentrations (1 ρM – 1 µM) of melatonin in the absence or presence of 10 µM or 1 µM of 7e or 7f. Other experimental details were as to the legend of Figure 4.
(§7) 2×10^5 cells were seeded into each well of 12-well plates for overnight before serum withdrawal for 4 h to reduce the basal ERK phosphorylation. Tested compounds were diluted in serum-free culture medium at desired concentrations and treated the cells for 5 min. Reactions was stopped by aspiration and then adding 150 µl of lysis buffer with protease inhibitors (50 mM Tris–HCl, pH 7.5, 100 mM NaCl, 5 mM EDTA, 40 mM NaP2O7, 1% Triton X-100, 1 mM dithiothreitol, 200 µM Na3VO4, 100 µM phenylmethylsulfonyl fluoride, 2 µg/ml leupeptin, 4 µg/ml aprotinin, and 0.7 µg/ml pepstain). Cells were allowed to lyse for 30 min at 4°C with agitation, and the collected total cell lysates were cleared by centrifugation. Protein samples were resolved in SDS-PAGE and transferred to nitrocellulose membranes using iBlot system (Invitrogen). Phosphorylated ERK was detected using specific antibodies as described previously. Chemiluminescence signals on the blots were detected on X-ray films.

The target in data set [9] is T1, MT2. Put plainly: Immunodetection of ERK phosphorylation in MT2-CHO cells. On the set-up: expressed in transfected cells. It is filed as cell-based. How it is done:
as §5, §6, §7

Where two headings read alike, the source gives them in different places.
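Wherever Selectivity, ratio Ki(MT1)/Ki(MT2) is given: competition binding on intact CHO cells stably co-expressing human MT2 with G protein chimera 16z25, displacing [3H]melatonin at 4°C over 60 min, melatonin run as reference.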
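Wherever displacement of pre-incubated [3H]melatonin at MT2 (in words) is given: competition binding on intact CHO cells stably co-expressing human MT2 with G protein chimera 16z25, displacing [3H]melatonin at 4°C over 60 min, melatonin run as reference.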

T2 sequence (P48039 whole entry): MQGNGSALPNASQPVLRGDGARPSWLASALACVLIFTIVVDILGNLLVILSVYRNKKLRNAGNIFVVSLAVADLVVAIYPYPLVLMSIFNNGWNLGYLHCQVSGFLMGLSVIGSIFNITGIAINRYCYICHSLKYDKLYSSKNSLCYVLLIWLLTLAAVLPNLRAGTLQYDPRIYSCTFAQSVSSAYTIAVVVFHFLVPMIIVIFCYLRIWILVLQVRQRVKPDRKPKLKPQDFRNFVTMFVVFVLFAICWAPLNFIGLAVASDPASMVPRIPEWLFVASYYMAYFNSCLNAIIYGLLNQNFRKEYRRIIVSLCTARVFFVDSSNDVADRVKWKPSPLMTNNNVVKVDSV

Take `COc1cccc(COc2cc3ccn(C)c(=O)c3cc2OC)c1` [7b, 7-Methoxy-6-(3-methoxy-benzyloxy)-2-methylisoquinolin-1(2H)-one]: the melting point (in general, the temperature of the solid-liquid transition) was 85 to 87 °C. At MT2 [1] (Ki(MT1)/Ki(MT2)), the “Selectivity, ratio Ki(MT1)/Ki(MT2)” value was 139. Moreover, on MT2 [1] (competitive binding, intact CHO cells), the “displacement of pre-incubated [3H]melatonin at MT2 (in words)” value is listed as “completely displaced”. Besides, on MT1 [2], the IC50 is 16.2 µM and the affinity, expressed as Ki, was 3700 nM. Moreover, the Emax on MT1 [2] (read-out: MT1 %Resp±SEM (percentage of melatonin-mediated displacement of radioligand binding)) worked out at 90 ± 8%. Further, on MT2 [3], the IC50 was 89.1 nM and the inhibition constant (Ki) (as a rule, the equilibrium dissociation constant of an inhibitor or competing ligand from its target) is 26.6 nM. Besides, on MT2 [3] (read-out: MT2 %Resp±SEM (percentage of melatonin-mediated displacement of radioligand binding)), the Emax was determined as 92 ± 4%. For the same compound, the EC50 at MT1 [4] worked out at 31.1 nM. For the same compound, the “MT1 %Resp ±SEM, Ca2+ signal” value on MT1 [4] (percentage of melatonin (MT)-mediated stimulation of Ca2+ signal) came out at 63±7%. Besides, the EC50 at MT2 [5] (MT2-CHO cells, FLIPR, calculated from mean pEC50, NSR = no significant response for up to 30 µM, read-out: MT2 EC50, Ca2+ mobilization) was 0.3 nM. Further, on MT2 [5] (MT2-CHO cells, FLIPR, mean ± SEM of 3–5 trials, read-out: MT2 pEC50 ±SEM, Ca2+ mobilization (converted)), the EC50 is 0.288 nM. Moreover, the Emax on MT2 [5] (MT2, percentage of melatonin (MT)-mediated stimulation of Ca2+ signal, read-out: MT2 %Resp ±SEM, Ca2+ signal) came out at 92 ± 11%. Besides, on MT1 [6] (forskolin-stimulated), the “inhibition of cAMP levels in MT1-CHO cells (in words)” value is recorded as “observable inhibition”. In addition, the “MT1 %Inhmax ±SEM” value at MT1 [6] (maximal percentage inhibition of the forskolin-elevated cAMP level, MT1-CHO) was found to be 69±8%. In addition, the IC50 on MT1 [6] (read-out: MT1 IC50, inhibition of cAMP production) amounted to 1200 nM. The IC50 on MT2 [7] (MT2-CHO cells, 50 µM forskolin, mean ± SEM of 2 trials, read-out: MT2 pIC50 ±SEM, inhibition of cAMP production (converted)) was 63.1 nM. For the same compound, the “MT2 %Inhmax ±SEM” value on MT2 [7] (maximal percentage inhibition of the forskolin-elevated cAMP level, MT2-CHO) stood at 70±3%. For the same compound, the “concentration inducing weak ERK phosphorylation in MT1-CHO cells” value at MT1 [8] (immunoblot) is more than 1 µM.
For `CC(=O)NCCc1c(Cc2ccccc2)[nH]c2ccccc12` [luzindole, reference compound], the Ki was 102 nM at MT1 [2] and 2.9 nM at MT2 [3]. Moreover, on MT2 [5] (MT2-CHO cells, FLIPR), the “Ca2+ mobilization activity at MT2 (in words)” value is reported as “weak but significant MT2-selective agonistic activity”. For the same compound, the “suppression of melatonin-induced ERK phosphorylation in MT1-CHO cells (antagonism)” value on MT1 [8] (1 nM melatonin (MLT)) is recorded as “blocked”. In addition, the “effect on basal ERK phosphorylation in MT1-CHO cells” value at MT1 [8] (at 1 µM) was “completely eliminated basal ERK phosphorylation”. For the same compound, the “suppression of melatonin-induced ERK phosphorylation in MT2-CHO cells (antagonism)” value at MT2 [9] (1 nM melatonin (MLT), 7e and 7f at 10 µM) is on record as “blocked”. The “suppression of 7b-induced ERK phosphorylation in MT2-CHO cells (antagonism)” value on MT2 [9] (agonist 7b 100 nM, 7e at 10 µM) is “blocked”. At MT2 [9] (luzindole alone), the “effect on basal ERK phosphorylation in MT2-CHO cells” value is on record as “constantly enhanced”.

The values are drawn from article PMC4257560, “Synthesis and Functional Characterization of Substituted Isoquinolinones as MT2-Selective Melatoninergic Ligands” (PLoS ONE, 2014).
